Experimental data taken from patent US20260198495A1, “BINARY INSECTICIDE COMPOSITION AND USE THEREOF” (SHENYANG SINOCHEM AGROCHEMICALS R & D CO., LTD., priority 2022, published 2026).

Experiments:
Assay type in all cases: in vivo
[1] = system: 2nd-instar nymphs of Frankliniella occidentalis Pergande; test: Joint toxicity of I-72 + carbosulfan, leaf spraying, Example 22, Table 22; conditions: in Phaseolus vulgaris, 48 h
Protocol: Test subject: 2nd-instar nymphs of Frankliniella occidentalis Pergande, a sensitive strain reared indoors.
(§1) Preparation of the pesticide solution: according to different test requirements, the test samples in Table 1 were accurately weighed respectively with an electronic analytical balance. The technical pesticides were dissolved in acetone, and then diluted with 0.1% Tween 80 water into a series of pesticide solutions with a certain concentration gradient according to the experimental design dosage.
(§2) Test conditions: temperature: 25-27° C., humidity: RH 60%, and illumination: L:D=14:10
Experimental method: the spraying method was adopted. The kidney bean leaves cultivated in the greenhouse were selected, and the petioles were wrapped with moist degreased cotton and sealing film. They were evenly sprayed with the pesticide solution in the order from low dosage to high dosage according to the experimental design, placed in a 6-cm-diameter Petri dish with filter paper. After natural air-drying in the shade, the test insects were introduced, with 20 insects for each treatment and 3 replicates. In addition, a blank control was set up. […] The corrected mortality rate was calculated using the Abbott's formula, and the DPS data processing software was used for statistical analysis to calculate the toxicities (LC50 values) of the single test pesticides and the mixtures under the test ratios. […]

[2] = system: 3rd-instar larvae of Ostrinia furnacalis Guenee; test: Joint toxicity of I-72 + organophosphorus insecticides, corn stalk dipping, Example 21, Table 21; conditions: 48 h
Protocol: Test target: 3rd-instar larvae of Ostrinia furnacalis Guenee, a sensitive strain reared indoors.
as §1, with “samples” for “samples in Table 1”
(§3) Experimental method: first, fresh tender corn stalks cultivated in the greenhouse were selected, cut into small sections of 3 cm, and dipped in the prepared pesticide solution for 10 s in the order from low dosage to high dosage according to the experimental design. After natural air-drying in the shade, they were placed in a 9-cm-diameter Petri dish with filter paper, and uniform and healthy test insects were introduced, with 10 insects for each treatment and 3 replicates for each treatment. In addition, a blank control was set up.
(§4) The treated test materials were placed in an observation room, and the temperature, humidity and illumination of the observation room could be adjusted as needed. The number of dead and live insects was investigated 48 hours later. The corrected mortality rate was calculated using the Abbott's formula, and statistical analysis was performed with the DPS data processing software to obtain the toxicity regression equation, LC50 value and 95% confidence limit of each single test pesticide and each mixture of different ratios. Then, the co-toxicity coefficient of each ratio was calculated using the Sun Y-P method to evaluate the mixing effect (the same as in Example 1).

[3] = system: 3rd-instar larvae of Plutella xylostella; test: Joint toxicity of I-72 + chlorpyrifos, leaf-disk dipping, Example 16, Table 16; conditions: in Brassica oleracea, 72 h
Protocol: Test target: 3rd-instar larvae of Plutella xylostella.
as §1, with “samples” for “samples in Table 1”
as §3, with “cabbage leaves” for “tender corn stalks”, “selected. The cabbage leaves were made” for “selected, cut”, “circular leaf disks with a diameter” for “small sections”, “cm using a puncher” for “cm,”
(§5) The treated test materials were placed in an observation room, and the temperature, humidity and illumination of the observation room could be adjusted as needed. […] Then, the co-toxicity coefficient of each ratio was calculated using the Sun Y-P method to evaluate the mixing effect (the same as in Example 1).

[4] = system: Frankliniella occidentalis Pergande; test: Joint toxicity of I-72 + organophosphorus insecticides, leaf dipping, Example 14, Table 14; conditions: in Phaseolus vulgaris, foliar, 48 h
Protocol: Test target: Frankliniella occidentalis Pergande, a sensitive strain reared indoors.
(§8) Preparation of the pesticide solution: according to different test requirements, the test samples were accurately weighed respectively with an electronic analytical balance. The technical pesticides were dissolved in acetone, and then diluted with 0.1% Tween 80 water into a series of pesticide solutions with a certain concentration gradient according to the experimental design dosage.
Experimental method: first, kidney bean leaves were selected and dipped in the prepared pesticide solution for 10 s in the order from low dosage to high dosage according to the experimental design. After natural air-drying in the shade, they were placed in a 9-cm-diameter Petri dish with filter paper, and uniform and healthy test insects were introduced, with about 20 insects for each treatment and 3 replicates for each treatment. In addition, a blank control was set up.

[5] = system: Aphis gossypii Glover nymphs; test: Joint toxicity of I-72 + organophosphorus insecticides, cotton leaf spraying, Example 17, Table 17; conditions: 48 h
Protocol: Test target: Aphis gossypii Glover nymphs, a sensitive strain reared indoors.
as §1, with “samples” for “samples in Table 1”
(§6) Experimental method: first, cotton leaves with uniform and consistent Aphis gossypii were selected, with about 20 insects on each leaf. Then, they were evenly sprayed with the pesticide solution in the order from low dosage to high dosage according to the experimental design, with 1.5 mL for each leaf and 3 replicates for each treatment. In addition, a blank control was set up.
as §4

adult Phyllotreta spp. = test: Joint toxicity of I-72 + organophosphorus insecticides, cabbage seedling spraying, Example 19, Table 19; conditions: 72 h
Protocol: Test target: adult Phyllotreta spp., a sensitive strain reared indoors.
as §1, with “samples” for “samples in Table 1”
Experimental method: first, fresh cabbage seedlings cultivated in the greenhouse were selected and evenly sprayed with the pesticide solution in the order from low dosage to high dosage according to the experimental design. After natural air-drying in the shade, they were covered with a glass cover, and uniform and healthy test insects were introduced, with 10 insects for each treatment and 3 replicates for each treatment. In addition, a blank control was set up.
as §4, with “72” for “48”

[6] = system: 3rd-instar larvae of Hyphantria cunea; test: Joint toxicity of I-72 + organophosphorus insecticides, poplar leaf dipping, Example 20, Table 20; conditions: foliar, 72 h
Protocol: Test target: 3rd-instar larvae of Hyphantria cunea, a sensitive strain reared indoors.
as §8
Experimental method: first, fresh and tender poplar leaves were selected, cut into small sections of 5 cm, and dipped in the prepared pesticide solution for 10 s in the order from low dosage to high dosage according to the experimental design. After natural air-drying in the shade, they were placed in a 9-cm-diameter Petri dish with filter paper, and uniform and healthy test insects were introduced, with 10 insects for each treatment and 3 replicates for each treatment. In addition, a blank control was set up.
The treated test materials were placed in an observation room, and the temperature, humidity and illumination of the observation room could be adjusted as needed. The number of dead and live insects was investigated 72 hours later.

[7] = system: 3rd-instar larvae of Chilo suppressalis (Walker); test: Joint toxicity of I-72 + organophosphorus insecticides, rice seedling dipping, Example 15, Table 15; conditions: 48 h
Protocol: Test target: 3rd-instar larvae of Chilo suppressalis (Walker), a sensitive strain reared indoors.
as §1, with “samples” for “samples in Table 1”
Experimental method: first, tender and fresh rice seedlings were selected and dipped in the prepared pesticide solution for 10 s in the order from low dosage to high dosage according to the experimental design. After natural air-drying in the shade, they were cut into small sections of 5 cm, placed in a 9-cm-diameter Petri dish with filter paper, and uniform and healthy test insects were introduced, with 10 insects for each treatment and 3 replicates for each treatment. In addition, a blank control was set up.
as §4

[8] = system: Bemisia tabaci (Gennadius) nymphs; test: Joint toxicity of I-72 + organophosphorus insecticides, cotton leaf-disk spraying, Example 18, Table 18; conditions: 96 h
Protocol: Test target: Bemisia tabaci (Gennadius) nymphs.
as §1, with “samples” for “samples in Table 1”
as §6, with “neat” for “uniform”, “Bemisia tabaci (Gennadius) nymphs” for “Aphis gossypii”, “selected and made into leaf disks,” for “selected,”, “leaf disk.” for “leaf.”
as §4, with “96” for “48”

Pyrrhalta aenescens = test: Joint toxicity of I-72 + fenobucarb, insect-dipping, Example 24, Table 24; conditions: 24 h
Protocol: Test target: Pyrrhalta aenescens, a strain reared indoors.
Experimental method: the insect-dipping method was adopted. Pyrrhalta aenescens of the same size were selected, put into an insect-dipping cage, and evenly […] the pesticide solution in the order from low dosage to high dosage according to the experimental design, with dipping for 10 s for each treatment. They were placed in a 9-cm-diameter Petri dish with filter paper. After natural air-drying in the shade, feed was added, with 3 replicates for each treatment. In addition, a blank control was set up.
The treated test materials were placed in an observation room. The total number of test insects and the number of dead insects were investigated 24 hours later. The temperature, humidity and illumination of the observation room could be adjusted as needed. The test conditions, the preparation of the pesticide solution and the evaluation method were the same as those in Example 1.

[9] = system: adult Tetranychus cinnabarinus (Boisduval); test: Joint toxicity of I-72 + spirodiclofen, potted-seedling spraying, Example 25, Table 25; conditions: A = compound I-72, B = spirodiclofen, 72 hours
Protocol: Test target: adult Tetranychus cinnabarinus (Boisduval), a sensitive strain reared indoors.
as §1, with “samples” for “samples in Table 1”
Experimental method: the activity of the mixture against the adult Tetranychus cinnabarinus (Boisduval) was determined by adopting the potted-seedling spraying method. First, the adult Tetranychus cinnabarinus of uniform size were transferred onto the leaves of kidney bean seedlings at the stage when the first pair of true leaves was fully expanded. After the adult mites had stabilized, the base number was counted. Then, the uniform spraying was performed with the pesticide solution in the order from low to high dose according to the experimental design, with 1.5 mL for each seedling and 3 replicates for each treatment. […]
as §5, with “effect,” for “effect (the same”, “1.” for “1).”

[10] = system: Bemisia tabaci (Gennadius) nymphs; test: Joint toxicity of I-72 + spiromesifen, Example 27, Table 27; conditions: A = compound I-72, B = spiromesifen; cotton leaf-disk spraying; 96 hours
Protocol: Test target: Bemisia tabaci (Gennadius) nymphs, a sensitive strain reared indoors.
as §1, with “samples” for “samples in Table 1”
as §6, with “neat” for “uniform”, “Bemisia tabaci (Gennadius) nymphs” for “Aphis gossypii”, “selected and made into leaf disks,” for “selected,”, “leaf disk.” for “leaf.”
as §5, with “needed. The number of dead and live insects was investigated 96 hours later.” for “needed.”

[11] = system: 3rd-instar larvae of Pyrausta nubilalis Hubern; test: Synergism assay (Bliss) of I-72 + abamectin, spinosad, spinetoram, emamectin benzoate, Example 6, Table 6; conditions: 72 h
Protocol: Test subject: 3rd-instar larvae of Pyrausta nubilalis Hubern, a sensitive strain reared indoors.
Test conditions: temperature: 24-26° C., humidity: RH 60%, and illumination: L:D=14:10
(§7) Preparation method: the test pesticides were accurately weighed respectively with an electronic analytical balance. After the two technical materials were respectively added into an appropriate amount of solvent and completely dissolved, the stock solution of the required concentration was prepared with water containing 0.1% Tween 80. The stock solutions of the two active ingredients were mixed in a certain ratio to prepare a mixed solution, which was then diluted respectively into a series of pesticide solutions with a certain concentration gradient according to the experimental design dosage.
Experimental method: the artificial diet-pesticide film method was adopted. A standard clean 24-well culture plate was selected. 1 ml of artificial diet was added to each well. After the diet cooled and solidified, a quantitative amount of a pesticide solution was added to the culture plate using a continuous sampler, and then it was air-dried naturally in the shade. The standard test insects were introduced, with 1 insect in each well, a total of 48 insects. The treated test insects were placed in an observation room under certain conditions. The reaction of the test insects was regularly observed, and the number of dead and live insects was investigated 72 h later.
The evaluation method adopted was the Bliss method. This method is applicable to the qualitative screening of insecticidal compositions. According to the concept of independent joint action he proposed, Bliss believes that the theoretical mortality rate P when insecticides are used in combination can be calculated by the following formula: […]
Pm is the mortality rate (%) of the target when the first active ingredient is at a concentration of m; and Pn is the mortality rate (%) of the target when the second active ingredient is at a concentration of n.
If the actual mortality rate of the target after the two active ingredients are mixed at a certain concentration is greater than theoretical mortality rate P, it is determined that the two active ingredients have a synergistic effect when used in combination at the set concentration, and otherwise, they have an antagonistic effect.

[12] = system: adult Bemisia tabaci (Gennadius); test: Joint toxicity of I-72 + abamectin, seedling spraying, Example 13, Table 13; conditions: adults, kidney bean seedling spraying, 72 h; A = compound I-72, B = abamectin
Excerpt: Test subject: adult Bemisia tabaci (Gennadius), a sensitive strain reared indoors.
Experimental method: the spraying method was adopted. The kidney bean seedlings cultivated in the greenhouse were selected and evenly sprayed with the pesticide solution in the order from low dosage to high dosage according to the experimental design. After natural air-drying in the shade, a self-made glass cover was put on, and the test insects were introduced, with 20-30 insects for each treatment and 3 replicates. In addition, a blank control was set up. The number of dead and live insects was investigated 72 hours later. The corrected mortality rate was calculated using the Abbott's formula, and the DPS data processing software was used for statistical analysis to calculate the toxicities (LC50 values) of the single test pesticides and the mixtures under the test ratios.
The test conditions, the preparation of the pesticide solution and the evaluation method were the same as those in Example 1.
The test subject, the test method, the test conditions, the preparation of the pesticide solution and the evaluation method were the same as those in Example 12.

[13] = system: 2nd-instar larvae of Chilo suppressalis (Walker); test: Joint toxicity of I-72 + abamectin, rice stalk spraying, Example 7, Table 7; conditions: resistant 2nd-instar larvae, 72 h, A = compound I-72, B = abamectin
Protocol: Test target: 2nd-instar larvae of Chilo suppressalis (Walker). The insect source was collected from Nanchang, Jiangxi Province, and it is the 11th generation continuously cultured indoors, with a relatively high resistance level to amide pesticides such as chlorantraniliprole.
as §2, §7
Experimental method: the spraying method was adopted. […] The corrected mortality rate was calculated using the Abbott's formula, and the DPS data processing software was used for statistical analysis to calculate the toxicities (LC50 values) of the single test pesticides and the mixtures under the test ratios. […]

CCCCN(CCCC)SN(C)C(=O)Oc1cccc2c1OC(C)(C)C2 [carbosulfan, reference compound]
LC50 [1]: 43.2 µg/mL

CCOP(=S)(OCC)Oc1nc(Cl)c(Cl)cc1Cl [chlorpyrifos]
LC50 [2]: 5.18 µg/mL
LC50 [3]: 13.7 µg/mL
LC50 [4]: 4.6 µg/mL
LC50 [5]: 4.16 µg/mL
LC50 (adult Phyllotreta spp.): 40.4 µg/mL
LC50 [6]: 5.24 µg/mL
LC50 [7]: 1.96 µg/mL
LC50 [8]: 12.1 µg/mL

CCC(C)c1ccccc1OC(=O)NC (stereo not drawn) [fenobucarb]
LC50 (Pyrrhalta aenescens): 37.2 µg/mL

CCC(C)(C)C(=O)OC1=C(c2ccc(Cl)cc2Cl)C(=O)OC12CCCCC2 [spirodiclofen]
LC50 [9]: 14.5033 µg/mL

Cc1cc(C)c(C2=C(OC(=O)CC(C)(C)C)C3(CCCC3)OC2=O)c(C)c1 [spiromesifen]
LC50 [10]: 10.6291 µg/mL

abamectin
Mortality rate (%) ([11]; single agent 0.1 mg/L): 10.42%
Mortality rate (%) ([11]; single agent 1 mg/L): 58.33%
Mortality rate (%) ([11]; single agent 2 mg/L): 75.00%
Mortality rate (%) ([11]; single agent 5 mg/L): 85.42%
LC50 [12]: 2.2263 µg/mL
LC50 [13]: 8.0355 µg/mL
